Data as given in patent publication US20020035061A1, “COMPOSITIONS AND METHODS FOR TREATING INFECTIONS USING CATIONIC PEPTIDES ALONE OR IN COMBINATION WITH ANTIBIOTICS” (priority 1996, published 2002).

How the values were obtained:
Assay in all cases: microbe, parasite or virus in culture
Type in all cases: cell-based
bacterial isolates = test system: bacterial isolates
[1] = test system: inherently resistant microorganisms; conditions: B. cepacia
[2] = test system: microorganisms with acquired resistance
[3] = test system: vancomycin / teicoplanin resistant enterococci; conditions: for Vancomycin MIC + Peptide: in combination with the labelled peptide; for Peptide MIC + Vancomycin: in combination with vancomycin
S. aureus = S. aureus SA25

In the case of KWKSFIKKLTSAAKKVLTTGLPALIS [MBI 29A3], the “Peptide MIC Alone” value (bacterial isolates; 1. Amikacin, B. cepacia BC003) is reported as greater than 128 µg/mL, the “Peptide MIC Alone” value (bacterial isolates; 1. Amikacin, B. cepacia BC005) is reported as greater than 128 µg/mL and the “Peptide MIC Alone” value (bacterial isolates; 1. Amikacin, E. faecium EFM004) is reported as 8 µg/mL. For the same sequence, the “Peptide MIC Alone” value (bacterial isolates; 1. Amikacin, S. maltophilia SMA036) was 64 µg/mL, the “Peptide MIC Alone” value (bacterial isolates; 1. Amikacin, S. maltophilia SMA063) was 8 µg/mL and the “Peptide MIC Alone” value (bacterial isolates; 1. Amikacin, S. maltophilia SMA064) was 8 µg/mL. For the same sequence, the “Peptide MIC Alone” value (bacterial isolates; 4. Gentamicin, S. maltophilia SMA019) was 2 µg/mL, the “Peptide MIC Alone” value (bacterial isolates; 4. Gentamicin, S. maltophilia SMA021) was 2 µg/mL and the “Amikacin MIC + Peptide” value (bacterial isolates; B. cepacia BC003) was 8 µg/mL. The “Peptide MIC + Amikacin” value (bacterial isolates; B. cepacia BC003) was 64 µg/mL, the “Amikacin MIC + Peptide” value (bacterial isolates; B. cepacia BC005) was 32 µg/mL and the “Peptide MIC + Amikacin” value (bacterial isolates; B. cepacia BC005) was 32 µg/mL. For the same sequence, the “Peptide MIC + Vancomycin” value (bacterial isolates; E. faecalis EFS003) was 2 µg/mL, the “Vancomycin MIC + Peptide” value (bacterial isolates; E. faecalis EFS003) was 2 µg/mL and the “Peptide MIC + Vancomycin” value (bacterial isolates; E. faecalis EFS005) was 1 µg/mL. For the same sequence, the “Vancomycin MIC + Peptide” value (bacterial isolates; E. faecalis EFS005) was 4 µg/mL, the “Peptide MIC + Vancomycin” value (bacterial isolates; E. faecalis EFS011) was 8 µg/mL and the “Vancomycin MIC + Peptide” value (bacterial isolates; E. faecalis EFS011) was 4 µg/mL. The “Peptide MIC + Vancomycin” value (bacterial isolates; E. faecalis EFS014) was 0.5 µg/mL, the “Vancomycin MIC + Peptide” value (bacterial isolates; E. faecalis EFS014) was 1 µg/mL and the “Amikacin MIC + Peptide” value (bacterial isolates; E. faecium EFM004) was 8 µg/mL. The “Peptide MIC + Amikacin” value (bacterial isolates; E. faecium EFM004) was 4 µg/mL, the “Peptide MIC + Vancomycin” value (bacterial isolates; E. faecium EFM006) was 2 µg/mL and the “Vancomycin MIC + Peptide” value (bacterial isolates; E. faecium EFM006) was 4 µg/mL. The “Mupirocin MIC + Peptide” value (bacterial isolates; P. aeruginosa PA2) was 0.1 µg/mL, the “Peptide MIC + Mupirocin” value (bacterial isolates; P. aeruginosa PA2) was 16 µg/mL and the “Mupirocin MIC + Peptide” value (bacterial isolates; P. aeruginosa PA3) was 0.1 µg/mL. For the same sequence, the “Peptide MIC + Mupirocin” value (bacterial isolates; P. aeruginosa PA3) was 8 µg/mL, the “Peptide MIC + Tobramycin” value (bacterial isolates; P. aeruginosa PA022) was 0.25 µg/mL and the “Tobramycin MIC + Peptide” value (bacterial isolates; P. aeruginosa PA022) was 4 µg/mL. For the same sequence, the “Ciprofloxacin MIC + Peptide” value (bacterial isolates; P. aeruginosa PA24) was 16 µg/mL, the “Peptide MIC + Ciprofloxacin” value (bacterial isolates; P. aeruginosa PA24) was 0.125 µg/mL and the “Peptide MIC + Tobramycin” value (bacterial isolates; P. aeruginosa PA028) was 0.125 µg/mL. The “Tobramycin MIC + Peptide” value (bacterial isolates; P. aeruginosa PA028) was 16 µg/mL, the “Peptide MIC + Tobramycin” value (bacterial isolates; P. aeruginosa PA029) was 0.125 µg/mL and the “Tobramycin MIC + Peptide” value (bacterial isolates; P. aeruginosa PA029) was 16 µg/mL. For the same sequence, the “Ciprofloxacin MIC + Peptide” value (bacterial isolates; P. aeruginosa PA41) was 0.5 µg/mL, the “Peptide MIC + Ciprofloxacin” value (bacterial isolates; P. aeruginosa PA41) was 4 µg/mL and the “Ciprofloxacin MIC + Peptide” value (bacterial isolates; S. aureus SA10) was 16 µg/mL. For the same sequence, the “Peptide MIC + Ciprofloxacin” value (bacterial isolates; S. aureus SA10) was 0.5 µg/mL, the “Ciprofloxacin MIC + Peptide” value (bacterial isolates; S. aureus SA25) was 2 µg/mL and the “Peptide MIC + Ciprofloxacin” value (bacterial isolates; S. aureus SA25) was 0.125 µg/mL. For the same sequence, the “Gentamicin MIC + Peptide” value (bacterial isolates; S. maltophilia SMA019) was 16 µg/mL, the “Peptide MIC + Gentamicin” value (bacterial isolates; S. maltophilia SMA019) was 0.125 µg/mL and the “Gentamicin MIC + Peptide” value (bacterial isolates; S. maltophilia SMA021) was 16 µg/mL. The “Peptide MIC + Gentamicin” value (bacterial isolates; S. maltophilia SMA021) was 0.125 µg/mL, the “Peptide MIC + Tobramycin” value (bacterial isolates; S. maltophilia SMA029) was 4 µg/mL and the “Tobramycin MIC + Peptide” value (bacterial isolates; S. maltophilia SMA029) was 4 µg/mL. For the same sequence, the “Peptide MIC + Tobramycin” value (bacterial isolates; S. maltophilia SMA030) was 4 µg/mL, the “Tobramycin MIC + Peptide” value (bacterial isolates; S. maltophilia SMA030) was 4 µg/mL and the “Amikacin MIC + Peptide” value (bacterial isolates; S. maltophilia SMA036) was 32 µg/mL. The “Peptide MIC + Amikacin” value (bacterial isolates; S. maltophilia SMA036) was 16 µg/mL, the “Amikacin MIC + Peptide” value (bacterial isolates; S. maltophilia SMA063) was 16 µg/mL and the “Peptide MIC + Amikacin” value (bacterial isolates; S. maltophilia SMA063) was 4 µg/mL. For the same sequence, the “Amikacin MIC + Peptide” value (bacterial isolates; S. maltophilia SMA064) was 16 µg/mL, the “Peptide MIC + Amikacin” value (bacterial isolates; S. maltophilia SMA064) was 4 µg/mL and the “Mupirocin MIC + Peptide” value (bacterial isolates; S. marcescens SBSM1) was 100 µg/mL. The “Peptide MIC + Mupirocin” value (bacterial isolates; S. marcescens SBSM1) was 16 µg/mL, the “Mupirocin MIC + Peptide” value (bacterial isolates; S. marcescens SBSM2) was 100 µg/mL and the “Peptide MIC + Mupirocin” value (bacterial isolates; S. marcescens SBSM2) was 64 µg/mL. For the same sequence, the FIC (bacterial isolates; peptide + Amikacin, B. cepacia BC003) was 0.50, the FIC (bacterial isolates; peptide + Amikacin, B. cepacia BC005) was 0.38 and the FIC (bacterial isolates; peptide + Amikacin, E. faecium EFM004) was 0.56. The FIC (bacterial isolates; peptide + Amikacin, S. maltophilia SMA036) was 0.38, the FIC (bacterial isolates; peptide + Amikacin, S. maltophilia SMA063) was 0.56 and the FIC (bacterial isolates; peptide + Amikacin, S. maltophilia SMA064) was 0.56. The FIC (bacterial isolates; peptide + Ciprofloxacin, P. aeruginosa PA24) was 0.50, the FIC (bacterial isolates; peptide + Ciprofloxacin, P. aeruginosa PA41) was 0.63 and the FIC (bacterial isolates; peptide + Ciprofloxacin, S. aureus SA10) was 0.75. For the same sequence, the FIC (bacterial isolates; peptide + Ciprofloxacin, S. aureus SA25) was 0.63, the FIC (bacterial isolates; peptide + Mupirocin, P. aeruginosa PA2) was 0.50 and the FIC (bacterial isolates; peptide + Mupirocin, P. aeruginosa PA3) was 0.50. The FIC (bacterial isolates; peptide + Mupirocin, S. marcescens SBSM1) was 0.16, the FIC (bacterial isolates; peptide + Mupirocin, S. marcescens SBSM2) was 0.35 and the FIC (bacterial isolates; peptide + Vancomycin, E. faecalis EFS003) was 0.56. It also gave an FIC (bacterial isolates; peptide + Vancomycin, E. faecalis EFS005) of 0.28, an FIC (bacterial isolates; peptide + Vancomycin, E. faecalis EFS011) of 0.50 and an FIC (bacterial isolates; peptide + Vancomycin, E. faecalis EFS014) of 0.52. The FIC (bacterial isolates; peptide + Vancomycin, E. faecium EFM006) was 0.52, the “Peptide MIC + Amikacin” value [1] was 32 µg/mL and the “Peptide MIC Alone” value ([1]; Amikacin section) was greater than 128 µg/mL. For the same sequence, the “Gentamicin MIC + Peptide” value ([2]; A. baumannii ABI002) was 4 µg/mL, the “Peptide MIC + Gentamicin” value ([2]; A. baumannii ABI002) was 1 µg/mL and the “Peptide MIC Alone” value ([2]; A. baumannii ABI002, Gentamicin section) was 2 µg/mL. For the same sequence, the “Peptide MIC + Tobramycin” value ([2]; E. coli EC0006) was 2 µg/mL, the “Tobramycin MIC + Peptide” value ([2]; E. coli EC0006) was 2 µg/mL and the “Peptide MIC Alone” value ([2]; E. coli EC0006, Tobramycin section) was 4 µg/mL. For the same sequence, the “Peptide MIC + Tobramycin” value ([2]; P. aeruginosa PA022) was 0.25 µg/mL, the “Tobramycin MIC + Peptide” value ([2]; P. aeruginosa PA022) was 4 µg/mL and the “Peptide MIC Alone” value ([2]; P. aeruginosa PA022, Tobramycin section) was 4 µg/mL. The “Gentamicin MIC + Peptide” value ([2]; P. aeruginosa PA041) was 4 µg/mL, the “Peptide MIC + Gentamicin” value ([2]; P. aeruginosa PA041) was 4 µg/mL and the “Ciprofloxacin MIC + Peptide” value ([2]; P. aeruginosa PA41) was 0.5 µg/mL. The “Peptide MIC + Ciprofloxacin” value ([2]; P. aeruginosa PA41) was 4 µg/mL, the “Peptide MIC Alone” value ([2]; P. aeruginosa PA41, Ciprofloxacin section) was 8 µg/mL and the “Peptide MIC Alone” value ([2]; P. aeruginosa PA041, Gentamicin section) was 8 µg/mL. For the same sequence, the “Peptide MIC” value ([2]; S. aureus, combination with Mupirocin, in µg/mL) was 4, the “Peptide MIC + Tobramycin” value ([2]; S. maltophilia SMA027) was 16 µg/mL and the “Tobramycin MIC + Peptide” value ([2]; S. maltophilia SMA027) was 4 µg/mL. For the same sequence, the “Peptide MIC Alone” value ([2]; S. maltophilia SMA027, Tobramycin section) was 32 µg/mL, the “Peptide MIC + Tobramycin” value ([2]; S. maltophilia SMA029) was 4 µg/mL and the “Tobramycin MIC + Peptide” value ([2]; S. maltophilia SMA029) was 4 µg/mL. The “Peptide MIC Alone” value ([2]; S. maltophilia SMA029, Tobramycin section) was 16 µg/mL, the FIC ([2]; peptide + Tobramycin, E. coli EC0006) was 0.75 and the “Amikacin MIC + Peptide” value ([3]; E. faecium EFM004) was 8 µg/mL. For the same sequence, the “Peptide MIC + Amikacin” value ([3]; E. faecium EFM004) was 4 µg/mL, the “Amikacin MIC + Peptide” value ([3]; E. faecium EFM020) was 16 µg/mL and the “Peptide MIC + Amikacin” value ([3]; E. faecium EFM020) was 2 µg/mL. The “Vancomycin MIC + Peptide” value ([3]; E. faecalis EFS005) was 1 µg/mL, the “Vancomycin MIC + Peptide” value ([3]; E. faecalis EFS011) was 4 µg/mL and the “Vancomycin MIC + Peptide” value ([3]; E. faecalis EFS014) was 1 µg/mL. For the same sequence, the “Vancomycin MIC + Peptide” value ([3]; E. faecium EFM006) was 4 µg/mL, the “Peptide MIC + Vancomycin” value ([3]; E. faecalis EFS005) was 4 µg/mL and the “Peptide MIC + Vancomycin” value ([3]; E. faecalis EFS011) was 8 µg/mL. The “Peptide MIC + Vancomycin” value ([3]; E. faecalis EFS014) was 0.5 µg/mL, the “Peptide MIC + Vancomycin” value ([3]; E. faecium EFM006) was 2 µg/mL and the “Ciprofloxacin MIC + Peptide” value (S. aureus) was 1 µg/mL. The “Peptide MIC + Ciprofloxacin” value (S. aureus) was 0.5 µg/mL.
